Reference: ChEMBL document CHEMBL1201862, “PubChem BioAssay data set” (2004)
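Dose response: 5 concentrations. Exposure: 48 h. Format: 96-well plates. Endpoint: linear interpolation; highest concentration if not reached. GI50 marks 50% less growth.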 The source made the active and inactive calls. Rule as the data show it: active = GI50 up to about 1.1 µM and inactive = higher.

Experiments:
Test in all cases: DTP human tumour cell line panel, 48 h
[1] = test system: RXF 631
[2] = test system: DMS-273
[3] = test system: LXFL 529
[4] = test system: DLD-1
[5] = test system: HOP-18
[6] = test system: SNB-78
[7] = test system: XF498
[8] = test system: MDA-N
[9] = test system: NCI/ADR-RES

## CC1=C(C)CC2(SC1)C(=O)c1ccccc1C2=O
[1]
  GI50: > 100 µM (inactive)
[2]
  GI50: > 100 µM (inactive)
[3]
  GI50: > 100 µM (inactive)
[4]
  GI50: > 100 µM (inactive)
[5]
  GI50: > 100 µM (inactive)
[6]
  GI50: > 100 µM (inactive)

## CC(=O)n1c2c(c(=O)n1-c1ccccc1)[S+]([O-])CCC2 (stereo not drawn)
[1]
  GI50: 97.1 µM (inactive)
[2]
  GI50: 23.2 µM (inactive)
[7]
  GI50: > 76.7 µM (inactive)
[3]
  GI50: 28.7 µM (inactive)
[4]
  GI50: 48 µM (inactive)
[6]
  GI50: 85.9 µM (inactive)

## CC(=O)CN(Cc1cc(C)c2c(c1)c1ccccc1n2Cc1ccccc1)S(=O)(=O)c1ccc(C)cc1
[1]
  GI50: > 100 µM (inactive)
[2]
  GI50: > 100 µM (inactive)
[7]
  GI50: > 100 µM (inactive)
[3]
  GI50: > 100 µM (inactive)
[4]
  GI50: > 100 µM (inactive)
[5]
  GI50: > 100 µM (inactive)
[6]
  GI50: > 100 µM (inactive)

## CC(=O)NC(CCCCNC(=O)N(CCCl)N=O)C(=O)NCc1ccccc1 (stereo not drawn)
[1]
  GI50: > 100 µM (inactive)
[2]
  GI50: > 100 µM (inactive)
[7]
  GI50: > 100 µM (inactive)
[3]
  GI50: > 100 µM (inactive)
[4]
  GI50: > 100 µM (inactive)
[5]
  GI50: > 100 µM (inactive)

## CCOC(=O)C1Cc2c(ccc(OC)c2OC)C(=O)C1N (stereo not drawn)
[1]
  GI50: > 100 µM (inactive)
[2]
  GI50: > 100 µM (inactive)
[7]
  GI50: > 100 µM (inactive)
[3]
  GI50: 94.8 µM (inactive)
[4]
  GI50: > 100 µM (inactive)
[5]
  GI50: 97.5 µM (inactive)
[6]
  GI50: > 100 µM (inactive)

## Nc1ncnc2c(C3OC(CO)C(O)C3O)c[nH]c12 (stereo not drawn)
[1]
  GI50: 0.00776 µM (active)
[2]
  GI50: 0.01 µM (active)
[7]
  GI50: 0.00881 µM (active)
[3]
  GI50: 0.00482 µM (active)
[4]
  GI50: 0.000728 µM (active)
[8]
  GI50: 0.0131 µM (active)
[5]
  GI50: 0.00809 µM (active)
[6]
  GI50: 0.01 µM (active)

## C=C1C(=O)C23[C@H](O)C1CC[C@H]2[C@]12COC3(O)[C@@H](O)[C@@H]1C(C)(C)CC[C@@H]2O
[1]
  GI50: 10.1 µM (inactive)
[2]
  GI50: 13.6 µM (inactive)
[7]
  GI50: 3.46 µM (inactive)
[3]
  GI50: 1.27 µM (inactive)
[4]
  GI50: 11.3 µM (inactive)
[5]
  GI50: 12.2 µM (inactive)
[6]
  GI50: 3.44 µM (inactive)

## Clc1ccc(SC(/C=C/NNC2=NN=C(c3ccccc3)C(c3ccccc3)N2)c2ccccc2)cc1 (stereo not drawn)
[1]
  GI50: 25 µM (inactive)
[2]
  GI50: 26.2 µM (inactive)
[7]
  GI50: 18.7 µM (inactive)
[4]
  GI50: 23.4 µM (inactive)
[6]
  GI50: 32.7 µM (inactive)

## CC[N+](C)(C)c1ccc(C(=C2C=CC(=[N+](C)C)C=C2)c2ccc(N(C)C)cc2)cc1
[1]
  GI50: 13.4 µM (inactive)
[2]
  GI50: 6.4 µM (inactive)
[7]
  GI50: 15.8 µM (inactive)
[3]
  GI50: 6.04 µM (inactive)
[4]
  GI50: 6.07 µM (inactive)
[5]
  GI50: 6.89 µM (inactive)

## O=C(O/N=C1/CCC/C1=C\c1ccccc1)c1ccc([N+](=O)[O-])cc1
[1]
  GI50: > 100 µM (inactive)
[2]
  GI50: > 100 µM (inactive)
[3]
  GI50: > 100 µM (inactive)
[4]
  GI50: > 100 µM (inactive)
[5]
  GI50: > 100 µM (inactive)
[6]
  GI50: > 100 µM (inactive)

## Cc1cc(Cl)ccc1N1C(=O)C(=O)C(c2nc3ccccc3s2)C(=O)C1=O
[1]
  GI50: > 100 µM (inactive)
[2]
  GI50: > 100 µM (inactive)
[7]
  GI50: > 100 µM (inactive)
[3]
  GI50: > 100 µM (inactive)
[4]
  GI50: > 100 µM (inactive)
[5]
  GI50: > 100 µM (inactive)
[6]
  GI50: > 100 µM (inactive)

## COc1cc(-c2cc(CCC(=O)Nc3ccccc3[N+](=O)[O-])n(-c3ccc([N+](=O)[O-])cc3[N+](=O)[O-])n2)ccc1O
[1]
  GI50: > 10 µM (inactive)
[2]
  GI50: > 10 µM (inactive)
[7]
  GI50: > 100 µM (inactive)
[3]
  GI50: 44.7 µM (inactive)
[4]
  GI50: > 10 µM (inactive)
[5]
  GI50: > 10 µM (inactive)
[6]
  GI50: > 10 µM (inactive)

## Cc1nc2ccccc2c(=O)n1/N=C(\N=N\c1ccccc1)c1ccccc1Cl
[1]
  GI50: > 71.4 µM (inactive)
[2]
  GI50: 41 µM (inactive)
[7]
  GI50: 18.7 µM (inactive)
[3]
  GI50: 24.3 µM (inactive)
[4]
  GI50: 42.6 µM (inactive)
[5]
  GI50: 13.6 µM (inactive)
[6]
  GI50: 30.2 µM (inactive)

## COc1ccc(/C=C\c2cc(OC)c(OC)c(OC)c2)cc1OC(=O)CC(N)C(=O)O (stereo not drawn)
[2]
  GI50: 0.00195 µM (active)
[7]
  GI50: 0.00239 µM (active)
[3]
  GI50: 0.00191 µM (active)
[9]
  GI50: 0.000224 µM (active)
[4]
  GI50: 0.0041 µM (active)
[8]
  GI50: 0.000166 µM (active)
[5]
  GI50: 0.703 µM (active)
[6]
  GI50: 0.00208 µM (active)

## COc1cccc(N2C(=O)C3C4C=C5c6ccccc6N(c6ccccc6)C5(C3C2=O)[C@H]2C(=O)N(c3cccc(OC)c3)C(=O)[C@@H]42)c1 (stereo partly drawn)
[1]
  GI50: > 100 µM (inactive)
[2]
  GI50: > 100 µM (inactive)
[7]
  GI50: > 100 µM (inactive)
[3]
  GI50: > 100 µM (inactive)
[4]
  GI50: > 100 µM (inactive)
[5]
  GI50: > 100 µM (inactive)
[6]
  GI50: > 100 µM (inactive)

## COC(=O)/C(=C/c1ccc(OC)cc1)c1cc(OC)c(OC)c(OC)c1
[2]
  GI50: 0.746 µM (active)
[7]
  GI50: 4.89 µM (inactive)
[3]
  GI50: 3.73 µM (inactive)
[9]
  GI50: 0.514 µM (active)
[4]
  GI50: 2.61 µM (inactive)
[8]
  GI50: 0.133 µM (active)
[5]
  GI50: > 100 µM (inactive)
[6]
  GI50: 5.02 µM (inactive)
